We go through two compounds from paper PMC10828244, “Covalently Binding Adenosine A3 Receptor Agonist ICBM Irreversibly Reduces Voltage-Gated Ca^2+ Currents in Dorsal Root Ganglion Neurons” (Purinergic Signalling, 2023).

In test [1] the target is T1, adenosine A3 receptor (A3AR) (Rattus norvegicus, UniProt P28647).
T1 construct: gene Adora3; native receptor in isolated rat DRG neurons
T1 sequence (P28647 1-320): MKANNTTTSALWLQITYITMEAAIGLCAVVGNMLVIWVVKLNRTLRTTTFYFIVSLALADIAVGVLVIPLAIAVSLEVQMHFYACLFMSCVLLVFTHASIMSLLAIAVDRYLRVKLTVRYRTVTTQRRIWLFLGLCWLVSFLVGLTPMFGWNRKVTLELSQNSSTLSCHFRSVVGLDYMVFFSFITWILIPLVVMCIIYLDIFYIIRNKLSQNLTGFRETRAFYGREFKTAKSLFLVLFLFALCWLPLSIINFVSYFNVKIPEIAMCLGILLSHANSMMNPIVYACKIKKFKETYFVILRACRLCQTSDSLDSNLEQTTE
The test is described as follows: whole-cell patch clamp of Ca2+ currents in rat DRG neurons ([…]); effect occluded by ICBM pre-incubation. It counts as cell-based.

Test [2] addresses T1, adenosine A3 receptor (A3AR). As to the kind of experiment: whole-cell patch clamp of Ca2+ currents in rat DRG neurons; washout, MRS1523 block and occlusion of Cl-IB-MECA. In kind it is cell-based. A general note: In patch-clamp work, channel activity is measured electrically.

As to `CNC(=O)[C@H]1O[C@@H](n2cnc3c(NCc4cccc(I)c4)nc(Cl)nc32)[C@H](O)[C@@H]1O` [Cl-IB-MECA, 2-Chloro-N^6-(3-iodobenzyl)-adenosine-5′-N-methyluronamide], in test [1], the “whole-cell patch clamp of Ca2+ currents in rat DRG neurons (30 nM); effect occlu” value was “the prototypical A3AR agonist, Cl-IB-MECA, significantly decreases ICa (Fig. 2A–B) in these cells”. In general, EC50 refers to the concentration needed to bring the measured effect to its halfway point. Consider `CNC(=O)[C@H]1O[C@@H](n2cnc3c(NCc4cccc(N=C=S)c4)ncnc32)[C@H](O)[C@@H]1O` [ICBM, N^6-(3-Isothiocyanatobenzyl)-5′-N-methylcarboxamidoadenosine], for which it took 11.7 nM to reach a half-maximal effect in test [2] (EC50).
